What was measured:
Sigma-1 Receptor (S1R) = Sigma-1 Receptor (S1R) (Homo sapiens (Human), UniProt Q99720); assay: In-vitro binding assay, Sigma-1 receptor (Eurofins Panlabs); conditions: Cheng Prusoff equation
[1] = tested on: optic nerve head astrocytes (ONHA); assay: ONHA oxidative stress (ROS) after tBHP, DCF fluorescence; format: cell-based, rat; conditions: 0.05 μM alone, 16 h, then tBHP 80 μM 6 h
Method: CM-H2DCFDA is cleaved to form non-fluorescent H2DCF, which is then oxidized to form the fluorescent DCF. DCF levels are indicative of ROS. Cell viability was also assessed using the commonly used colorimetric MTT assay.

[2] = tested on: optic nerve head astrocytes (ONHA); assay: ONHA cell viability after tBHP oxidative stress, MTT assay; conditions: 16 h, then tBHP 40 μM 6 h
Method: Cell viability was assessed using the MTT colorimetric assay.

RGCs = conditions: two experimental glaucoma models, elevated IOP
B104 neuroblastoma cells = conditions: in-situ ELISA; Geva et al. 2016; cited from earlier work

Sequence of Sigma-1 Receptor (S1R) (Q99720 whole entry, species assumed): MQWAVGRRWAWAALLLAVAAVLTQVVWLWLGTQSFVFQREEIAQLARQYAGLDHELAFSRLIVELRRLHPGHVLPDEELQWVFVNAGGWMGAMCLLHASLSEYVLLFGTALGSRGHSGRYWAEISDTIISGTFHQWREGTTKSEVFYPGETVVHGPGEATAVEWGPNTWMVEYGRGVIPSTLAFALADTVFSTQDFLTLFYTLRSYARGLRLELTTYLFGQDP

Row | Compound | S1R Ki (Sigma-1 Receptor (S1R)) | reduction of oxidative stress (DCF fluorescence) [1] | increase in cell viability ([2]; 0.01 μM alone) | increase in cell viability ([2]; 0.1 μM alone) | effect on RGCs (RGCs) | relation of protective effect to IOP (RGCs) | BDNF secretion in rat neuroblastoma cells (B104 neuroblastoma cells)
1 | CCCN1CCC(O)(c2cccc(S(C)(=O)=O)c2)CC1 [Compound 1] | high affinity | 5% | neither pridopidine (0.05 μM) nor compound 1 (0.01 μM) have any effect | – | – | – | –
2 | CCCN1CC[C@@H](c2cccc(S(C)(=O)=O)c2)[C@@H](O)C1 [Compound 4] | high affinity | – | – | neither pridopidine (0.05 μM) nor compound 4 (0.1 μM) have any effect | – | – | –
3 | CCCN1CCC(c2cccc(S(C)(=O)=O)c2)CC1 [Pridopidine, 4-(3-(Methylsulfonyl)phenyl)-1-propylpiperidine] | – | 30% | – | – | neuroprotective effect | not mediated by lowering IOP | dose dependent increase
